# Data from ChEMBL document CHEMBL1139154, “Inhibitors of HCV NS5B polymerase: synthesis and structure-activity relationships of unsymmetrical 1-hydroxy-4,4-dialkyl-3-oxo-3,4-dihydronaphthalene benzothiadiazine derivatives” (Bioorg Med Chem Lett, 2007).
# pEC50, pIC50: −log10 of the molar value.
# Key:
# [1] = Inhibition of HCV 1a NS5B polymerase; parameters: species or system Hepatitis C virus subtype 1a
# Hepatitis C virus [2] = experiment: Inhibition of HCV 1b NS5B polymerase; parameters: species or system Hepatitis C virus subtype 1b
# Hepatitis C virus [3] = experiment: Antiviral activity against HCV 1a replicon in presence of fetal calf serum; type: functional, organism-based, Hepacivirus hominis; conditions: subtype 1a
pIC50 [1],pIC50 (Hepatitis C virus [2]),pEC50 (Hepatitis C virus [3]),SMILES
7.37,6.71,5.10,CC(C)(O)CCC1(C)C(=O)C(C2=NS(=O)(=O)c3cc(NS(C)(=O)=O)ccc3N2)=C(O)c2ccccc21 (stereo not drawn)
7.06,6.37,5.92,CC1(CC=C2CCC2)C(=O)C(C2=NS(=O)(=O)c3cc(NS(C)(=O)=O)ccc3N2)=C(O)c2ccccc21 (stereo not drawn)
7.70,,6.74,CCCC1(C)C(=O)C(C2=NS(=O)(=O)c3cc(NS(C)(=O)=O)ccc3N2)=C(O)c2ccccc21 (stereo not drawn)
7.03,6.26,5.83,CC1(CC=C2CCCC2)C(=O)C(C2=NS(=O)(=O)c3cc(NS(C)(=O)=O)ccc3N2)=C(O)c2ccccc21 (stereo not drawn)
7.72,7.49,6.87,CC(C)=CC[C@@]1(C)C(=O)C(C2=NS(=O)(=O)c3cc(NS(C)(=O)=O)ccc3N2)=C(O)c2ccccc21
6.71,6.04,,CC1(CC=C2CCCCC2)C(=O)C(C2=NS(=O)(=O)c3cc(NS(C)(=O)=O)ccc3N2)=C(O)c2ccccc21 (stereo not drawn)
7.74,6.65,6.16,C=CCC1(C)C(=O)C(C2=NS(=O)(=O)c3cc(NS(C)(=O)=O)ccc3N2)=C(O)c2ccccc21 (stereo not drawn)
5.97,5.23,< 5.00,CCOC(=O)/C=C/CC1(C)C(=O)C(C2=NS(=O)(=O)c3cc(NS(C)(=O)=O)ccc3N2)=C(O)c2ccccc21 (stereo not drawn)
6.34,5.73,,CC1(C/C=C/c2ccccc2)C(=O)C(C2=NS(=O)(=O)c3cc(NS(C)(=O)=O)ccc3N2)=C(O)c2ccccc21 (stereo not drawn)
8.40,8.15,7.77,CC(C)CCC1(C)C(=O)C(C2=NS(=O)(=O)c3cc(NS(C)(=O)=O)ccc3N2)=C(O)c2ccccc21 (stereo not drawn)
7.80,7.44,6.72,CC1(CCC2CCC2)C(=O)C(C2=NS(=O)(=O)c3cc(NS(C)(=O)=O)ccc3N2)=C(O)c2ccccc21 (stereo not drawn)
6.35,,,CC1(CC(O)CO)C(=O)C(C2=NS(=O)(=O)c3cc(NS(C)(=O)=O)ccc3N2)=C(O)c2ccccc21 (stereo not drawn)
6.94,6.55,,CC1(CCCc2ccccc2)C(=O)C(C2=NS(=O)(=O)c3cc(NS(C)(=O)=O)ccc3N2)=C(O)c2ccccc21 (stereo not drawn)
7.17,,6.37,CC(C)CCC1(CCC(C)C)C(=O)C(C2=NS(=O)(=O)c3cc(NS(C)(=O)=O)ccc3N2)=C(O)c2ccccc21
7.68,7.40,6.80,CC1(CC2CC2)C(=O)C(C2=NS(=O)(=O)c3cc(NS(C)(=O)=O)ccc3N2)=C(O)c2ccccc21 (stereo not drawn)
7.49,7.15,6.49,CC1(CCC2CCCC2)C(=O)C(C2=NS(=O)(=O)c3cc(NS(C)(=O)=O)ccc3N2)=C(O)c2ccccc21 (stereo not drawn)
7.24,6.71,5.57,CC1(CCC2CCCCC2)C(=O)C(C2=NS(=O)(=O)c3cc(NS(C)(=O)=O)ccc3N2)=C(O)c2ccccc21 (stereo not drawn)
7.42,6.83,6.63,CC(C)=CCC1(C)C(=O)C(C2=NS(=O)(=O)c3cc(NS(C)(=O)=O)ccc3N2)=C(O)c2ccccc21 (stereo not drawn)
6.15,,,CC(C)=CC[C@]1(C)C(=O)C(C2=NS(=O)(=O)c3cc(NS(C)(=O)=O)ccc3N2)=C(O)c2ccccc21
7.41,7.15,5.66,CC(C)(Cl)CCC1(C)C(=O)C(C2=NS(=O)(=O)c3cc(NS(C)(=O)=O)ccc3N2)=C(O)c2ccccc21 (stereo not drawn)
6.03,,,CC1(C)C(=O)C(C2=NS(=O)(=O)c3cc(NS(C)(=O)=O)ccc3N2)=C(O)c2ccccc21
,,6.07,CC1(CCCO)C(=O)C(C2=NS(=O)(=O)c3cc(NS(C)(=O)=O)ccc3N2)=C(O)c2ccccc21 (stereo not drawn)
